# Values quoted from earlier work in US12396967B2 (Pulmonem Inc., priority 2020, dated 2025).
# Tested on: human bronchial epithelial cells stimulated with lipopolysaccharide
structure (smiles),measurement,value
"Nc1ccc(S(=O)(=O)c2ccc(N)cc2)cc1 [Dapsone, 4,4′-diamino-diphenyl sulfone]",IL-8 secretion,inhibits IL-8 secretion
